Measured values as given in patent US20160151403A1, “SMALL MOLECULE MODULATORS OF P53 FAMILY SIGNALING” (The Trustees of the University of Pennsylvania, priority 2006, published 2016).
Entries after “also recorded” stand apart in the source; their conditions may differ.

Experiments:
[1] = system: DR5 and p21 in HCT116/p53(+/+) cells; test: Western blot of p53 target genes DR5 and p21 in HCT116/p53(+/+) cells; format: cell-based, human; conditions: parental HCT116 (p53+/+) cells, FIG. 2A
Protocol: (§1) FIGS. 2A-2B show protein levels of p53 target genes p21 and DR5 were induced by selected compounds in HCT/p53(+/+) cells (A) or HCT/p53(−/−) cells (B). In A, doses of compounds (μM) are listed above each lane. Cells treated with compounds were harvested and lysed for SDS-PAGE and immunoblotted with p21 or DR5 antibodies. Ran was used as a protein loading control. Doses of compounds in B were as follows: 2 μM for #15, 12 μM for #1 and #23, 20 μM for #20 and #32, 100 μM for #33, 200 μM for #5, #8, #12, #16, #17, and #22, and 400 μM for #3. The dose for adriamycin was 0.2 μg/ml. Cells were incubated for 16 hours at 37° C. with the various drugs prior to cell harvest;
(§2) Cells were collected and protein concentration was quantified by the Bio-Rad protein assay prior to SDS-PAGE. Proteins were transferred to a PVDF membrane (Immobilon-P, Millipore Corporation, Bedford, Mass.) by a semi-dry transfer apparatus (Bio-Rad Laboratories, Hercules, Calif.). The membranes with transferred proteins were blotted with 10% W/V non-fat dry milk and then incubated with the primary antibody and subsequently secondary antibodies, which were labelled by horseradish peroxidase, or infrared dyes (IR). Signals were visualized by either ECL (Amersham Pharmacia Biotech, England, UK) and exposed to an X-ray film, or scanned by the Odyssey Infared Imaging System (LI-COR Biosciences, Lincoln, Nebr.). Anti-p53, DO-1, was from Santa Cruz biotechnology, Inc. (Santa Cruz, Calif.), anti-p73 (AB-1) and anti-p21 (AB-1) were obtained from Calbiochem (San Diego, Calif.). Anti-ser20 of p53 Cell were obtained from Signaling Technology (Danvers, Mass.) and anti-DR5 antibody was obtained from Cayman Chemical (Ann Arbor, Mich.).
(§3) The chemical library screening was directed at restoring “p53 responses” in p53-deficient cells. The small molecules identified by the cell-based screening procedure appeared to be able to restore p53 responses in p53-deficient colon tumors and to eliminate viable cells. Their function was further tested on wild-type p53-expressing and p53-knockout HCT116 colon adenocarcinoma cell lines. A number of candidate modulators of signaling by the p53 family appeared to induce expression of p53 target genes such as p21 or DR5(13) either with or without stabilizing p53 protein in HCT116 cells (FIG. 2A).

[2] = system: DR5 and p21 in HCT116/p53(−/−) cells; test: Western blot of p53 target genes DR5 and p21 in HCT116/p53(-/-) cells; format: cell-based, human; conditions: p53-null HCT116 cells, 16 hours, doses per compound in FIG. 2B
Protocol: as §1, §2
A number of selected compounds was further tested on HCT116/p53^−/− cells to verify the possibility of induction of p53 target gene expression in the absence of p53. […] The importance of this observation is in establishing that it is possible to identify small molecules with the potential to induce p53 target gene expression in p53-deficient cells.

[3] = system: HCT116/p53^−/− cells; test: Flow cytometry cell cycle profile, HCT116/p53(-/-); format: cell-based, human; conditions: for sub-G1 peak (apoptosis): HCT116/p53^−/−, #17 200 μM, #23 10 μM
Protocol: FIGS. 3A-3F show: Structures (A) of isolated compounds and summary of their effects on the p53 family and transcriptional targets (B). Cell cycle profiles of HCT/p53(+/+) and HCT/p53(−/−) in response to treatment by selected compounds (C-E). The dose of #17 was 200 μM and for #23 it was 10 μM. F, p73 protein levels were elevated in HCT116/p53(−/−) cells in response to treatment by selected compounds at various concentrations as indicated;
Adherent cells in a 6-well plate were trypsinized and collected in 15 ml centrifuge tubes to which were added the originally floating cells. The collected cells were ethanol-fixed and stained with propidium iodide (Sigma, St. Louis, Mo.). The DNA content of the stained cells was then measured using an Epics Elite flow cytometer (Beckman-Coulter, Fullerton, Calif.).
The ability of selected compounds from the chemical library screen to induce apoptosis of human colon tumor cells and the dependence of their effects on endogenous p53 status was further evaluated.

[4] = system: γH2AX; test: γH2AX test (DNA damage signaling); format: cell-based; conditions: after treatment
[5] = Toxicity in xenograft-bearing mice; format: in vivo; conditions: i.p., #1 100 mg/kg, #14 50 mg/kg, #23 10 mg/kg
Protocol: Compounds #1, #14, #17, and #23 were tested in colon-tumor xenograft-bearing mice in order to evaluate their toxicities and potential anti-tumor effects (FIG. 4). […] The initial doses were chosen below maximal tolerated doses based on the NCI DTP toxicology databases for chemical compound testing in vivo so that mice would survive drug administration and allow subsequent evaluation of anti-tumor effects. p53-null HCT116 xenografts were first tested to document anti-tumor effects in p53-deficient tumors and an experiment to simulate therapy of established tumors was designed. A total of 2×10^6 p53-null HCT116 cells were implanted on opposite flanks subcutaneously in each of 6 nude mice in each group. When tumor masses grew to about 3-5 mm in diameter, drugs were administered intra-peritoneally (#1: 100 mg/kg; #14: 50 mg/kg; #23: 10 mg/kg), and on the next day additional groups received intravenous TRAIL (15) (100 μg/mice via the tail vein). Tumor weights were determined at 7 days later. […] Nonetheless in the future it may be possible to modify the structure of #17 or identify doses where synergistic interactions with TRAIL may be observed.

[6] = system: HCT116/p53(−/−)/PG13 cells; test: p53 transcriptional activity, PG13 reporter, HCT116/p53(-/-)/PG13 cells; format: cell-based, human; conditions: p53-null HCT116, 16 h, bioluminescence
Protocol: Cells were treated by the indicated compounds at progressive 1:2 serial dilutions for 16 h, and the luciferase activities were detected by bioluminescence imaging. Fold induction was calculated by comparing to the nontreated cells;

[7] = system: p53 protein expression in HCT116 cells; test: Western blot of p53 protein in parental HCT116 cells; format: cell-based, human; conditions: FIG. 2A
Protocol: as §2, §3

In the case of `CO[C@H]1[C@@H](O)[C@@H](C)O[C@H](O[C@H]2[C@H](Oc3cccc4c(O)c5c(=O)oc6ccc(C)c7c(=O)oc(c34)c5c67)O[C@H](C)[C@H](O)[C@@H]2O)[C@@H]1O` [#1], the “expression of p53 targets DR5 and p21 proteins” value [1] is reported as “increased expression of DR5 and p21 proteins”, the “DR5 and p21 expression (p53 target genes)” value (“DR5 and p21 expression” below) [2] is reported as “increasing expression of the p53 target genes DR5 and p21; also recorded: strongly induce p53 target gene expression” and the “sub-G1 peak (apoptosis)” value [3] is reported as “induced a sub-G1 peak characteristic of apoptosis”. The γH2AX [4] was “not”, the “overt toxicities in treated mice” value [5] was “No overt toxicities were observed” and the “p53 transcriptional activity (reporter assay response)” value (“p53 transcriptional activity” below) [6] was “stronger responses in the reporter assays”. For the same compound, the p53 protein expression [7] was “increase p53 expression; also recorded: significantly increased p53 protein levels”.

With `COc1cccc2c1C(=O)c1c(O)c3c(c(O)c1C2=O)CC(O)(/C(C)=N/O)CC3OC1CC(N)C(O)C(C)O1` (stereo not shown) [#14] the “expression of p53 targets DR5 and p21 proteins” value [1] was “increased expression of DR5 and p21 proteins”, the “DR5 and p21 expression” value [2] was “increasing expression of the p53 target genes DR5 and p21; also recorded: strongly induce p53 target gene expression” and the “sub-G1 peak (apoptosis)” value [3] was “induced a sub-G1 peak characteristic of apoptosis”. For the same compound, the γH2AX [4] was “positive”, the “overt toxicities in treated mice” value [5] was “No overt toxicities were observed” and the “p53 transcriptional activity” value [6] was “stronger responses in the reporter assays”. The p53 protein expression [7] was “increase p53 expression; also recorded: significantly increased p53 protein levels”.

With `COc1cccc2c1C(=N)c1c(O)c3c(c(O)c1C2=O)C[C@@](O)(C(C)=O)C[C@@H]3O[C@H]1C[C@H](N)[C@H](O)[C@H](C)O1` [#23] the “expression of p53 targets DR5 and p21 proteins” value [1] was “increased expression of DR5 and p21 proteins”, the “DR5 and p21 expression” value [2] was “increasing expression of the p53 target genes DR5 and p21; also recorded: strongly induce p53 target gene expression” and the “sub-G1 peak (apoptosis)” value [3] was “induced a sub-G1 peak characteristic of apoptosis”. For the same compound, the “G1 arrest on apoptosis induction” value ([3]; p53-null HCT116 cells, compared with wild-type p53-expressing HCT116) was “greatly reduced G1 arrest”, the γH2AX [4] was “positive” and the “overt toxicities in treated mice” value [5] was “No overt toxicities were observed”. For the same compound, the “p53 transcriptional activity” value [6] was “stronger responses in the reporter assays” and the p53 protein expression [7] was “increase p53 expression; also recorded: significantly increased p53 protein levels”.
